Drawing on patent publication US11939314B2, “Quinolin-2-one derivatives” (MERCK PATENT GMBH, priority 2016, dated 2024), this text covers IC50 for 24 compounds.

The assay deals with T1, c-Kit(V654A) (Homo sapiens, UniProt P10721, V654A).
T1 construct: amino acids 544-end containing the V654A mutation; GST (N)
T1 sequence (P10721 544-976 V654A): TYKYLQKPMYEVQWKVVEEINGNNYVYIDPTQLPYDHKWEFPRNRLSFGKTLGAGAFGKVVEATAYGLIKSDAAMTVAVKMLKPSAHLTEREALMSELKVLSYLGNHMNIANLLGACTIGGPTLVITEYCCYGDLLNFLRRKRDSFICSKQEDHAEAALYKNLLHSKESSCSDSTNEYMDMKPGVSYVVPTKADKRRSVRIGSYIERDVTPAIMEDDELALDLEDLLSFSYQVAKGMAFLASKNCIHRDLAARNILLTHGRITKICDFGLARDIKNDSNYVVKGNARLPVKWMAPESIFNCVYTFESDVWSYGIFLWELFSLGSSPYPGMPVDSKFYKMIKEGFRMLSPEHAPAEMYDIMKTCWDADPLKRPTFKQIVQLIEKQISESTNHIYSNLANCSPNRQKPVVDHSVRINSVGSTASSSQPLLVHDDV
Put plainly: c-Kit(V654A) assay. The format is biochemical. The settings on record: recombinant human c-Kit aa 544-end, 200 μM ATP, 1.4E-06 means 1.4×10^−6, read-out: Inhibition (IC50) of c-KIT (V654A). The method, then: c-Kit(V654A) (N-terminal GST-tagged, recombinant human c-Kit, amino acids 544-end containing the V654A mutation) is incubated with 8 mM MOPS pH 7.0, 0.2 mM EDTA, 250 μM GGMEDIYEFMGGKKK, 10 mM MgAcetate and [gamma-33P-ATP] (specific activity approx. 500 cpm/pmol, concentration 200 μM). The reaction is initiated by the addition of the MgATP mix. After incubation for 40 minutes at room temperature, the reaction is stopped by the addition of 3% phosphoric acid solution. 10 μL of the reaction is then spotted onto a P30 filtermat and washed three times for 5 minutes in 75 mM phosphoric acid and once in methanol prior to drying and scintillation counting.
A word on the IC50: it is the midpoint of a concentration-inhibition curve. With `CS(=O)(=O)[C@H]1CCN(C(=O)c2ccc(-n3cc(-c4cc5cc(F)ccc5[nH]c4=O)nn3)cc2)C1` [A283, 6-fluoro-3-{1-[4-((S)-3-methanesulfonyl-pyrrolidine-1-carbonyl)-phenyl]-1H-[1,2,3]triazol-4-yl}-1H-quinolin-2-one], the IC50 stood at 19 nM.
As for `O=C(c1ccc(-n2cc(-c3cc4cc(F)ccc4[nH]c3=O)nn2)cc1)N1CCCC1c1cccnc1` (stereo not drawn) [A286, 6-fluoro-3-{1-[4-(2-pyridin-3-yl-pyrrolidine-1-carbonyl)-phenyl]-1H-[1,2,3]triazol-4-yl}-1H-quinolin-2-one], the figure is 5.1 nM; as for `CN1CCN(C(=O)c2ccc(-n3cc(-c4cc5cc(Cl)ccc5[nH]c4=O)cn3)cc2)CC1` [A305, 6-chloro-3-{1-[4-(4-methyl-piperazine-1-carbonyl)-phenyl]-1H-pyrazol-4-yl}-1H-quinolin-2-one], 7.7 nM; as for `CO[C@@H]1CCN(S(=O)(=O)c2ccc(-n3cc(-c4cc5cc(F)ccc5[nH]c4=O)nn3)cc2)C1` [A358, 6-fluoro-3-{1-[4-((R)-3-methoxy-pyrrolidine-1-sulfonyl)-phenyl]-1H-[1,2,3]triazol-4-yl}-1H-quinolin-2-one], 19 nM.
`O=c1[nH]c2ccc(F)cc2cc1-c1cn(-c2ccc(OC3CCCC3)cc2)nn1` [A364, 3-[1-(4-cyclopentyloxy-phenyl)-1H-[1,2,3]triazol-4-yl]-6-fluoro-1H-quinolin-2-one]: the half-inhibitory concentration (IC50) was found to be 21 nM.
As for `CS(=O)(=O)[C@@H]1CCN(C(=O)c2ccc(-n3cc(-c4cc5cc(F)ccc5[nH]c4=O)nn3)cc2)C1` [A282, 6-fluoro-3-{1-[4-((R)-3-methanesulfonyl-pyrrolidine-1-carbonyl)-phenyl]-1H-[1,2,3]triazol-4-yl}-1H-quinolin-2-one], the half-maximal inhibitory concentration (IC50) turned out to be 16 nM.
Then `CO[C@@H]1CCN(C(=O)c2cc(-n3cc(-c4cc5cc(F)ccc5[nH]c4=O)nn3)cs2)C1` [A351, 6-fluoro-3-{1-[5-((R)-3-methoxy-pyrrolidine-1-carbonyl)-thiophen-3-yl]-1H-[1,2,3]triazol-4-yl}-1H-quinolin-2-one], with 14 nM; and `CN1CCN(C(=O)c2ccc(-n3cc(-c4cc5cc(F)c(F)cc5[nH]c4=O)cn3)cc2)CC1` [A304, 6,7-difluoro-3-{1-[4-(4-methyl-piperazine-1-carbonyl)-phenyl]-1H-pyrazol-4-yl}-1H-quinolin-2-one], with 16 nM; and `CC1CCCN1C(=O)c1ccc(-n2cc(-c3cc4cc(F)ccc4[nH]c3=O)nn2)cc1` (stereo not drawn) [A288, 6-fluoro-3-{1-[4-(2-methyl-pyrrolidine-1-carbonyl)-phenyl]-1H-[1,2,3]triazol-4-yl}-1H-quinolin-2-one], with 6.5 nM.
As to `CN1CCC(Oc2ccc(-n3cc(-c4cc5cc(F)ccc5[nH]c4=O)nn3)cc2)CC1` [A375, 6-fluoro-3-{1-[4-(1-methyl-piperidin-4-yloxy)-phenyl]-1H-[1,2,3]triazol-4-yl}-1H-quinolin-2-one], the 50% inhibitory concentration (IC50) worked out at 9.5 nM.
With `CO[C@H](C)C(=O)N(C)c1ccc(-n2cc(-c3cc4cc(F)ccc4[nH]c3=O)nn2)cc1` [A346, (R)—N-{4-[4-(6-fluoro-2-oxo-1,2-dihydro-quinolin-3-yl)-[1,2,3]triazol-1-yl]-phenyl}-2-methoxy-N-methyl-propionamide], the IC50 was found to be 16 nM.
For the compound `CS(=O)(=O)CC1CCN(C(=O)c2ccc(-n3cc(-c4cc5cc(F)ccc5[nH]c4=O)nn3)cc2)C1` (stereo not drawn) [A284, 6-fluoro-3-{1-[4-(3-methanesulfonylmethyl-pyrrolidine-1-carbonyl)-phenyl]-1H-[1,2,3]triazol-4-yl}-1H-quinolin-2-one], the IC50 amounted to 17 nM.
Then `CN1CCN(CC2CCCN2C(=O)c2ccc(-n3cc(-c4cc5cc(F)ccc5[nH]c4=O)nn3)cc2)CC1` (stereo not drawn) [A287, 6-fluoro-3-(1-{4-[2-(4-methyl-piperazin-1-ylmethyl)-pyrrolidine-1-carbonyl]-phenyl}-1H-[1,2,3]triazol-4-yl)-1H-quinolin-2-one], with 25 nM; and `Cn1cc(C2CCCN2C(=O)c2ccc(-n3cc(-c4cc5cc(F)ccc5[nH]c4=O)nn3)cc2)cn1` (stereo not drawn) [A285, 6-fluoro-3-(1-{4-[2-(1-methyl-1H-pyrazol-4-yl)-pyrrolidine-1-carbonyl]-phenyl}-1H-[1,2,3]triazol-4-yl)-1H-quinolin-2-one], with 5.6 nM; and `CN1CC2(CCN(C(=O)c3ccc(-n4cc(-c5cc6cc(Cl)ccc6[nH]c5=O)nn4)cc3)C2)C1` [A290, 6-chloro-3-{1-[4-(2-methyl-2,6-diaza-spiro[3.4]octane-6-carbonyl)-phenyl]-1H-[1,2,3]triazol-4-yl}-1H-quinolin-2-one], with 14 nM.
Then `CO[C@@H]1CCN(S(=O)(=O)c2ccc(-n3cc(-c4cc5cc(Cl)ccc5[nH]c4=O)nn3)cc2)C1` [A359, 6-chloro-3-{1-[4-((R)-3-methoxy-pyrrolidine-1-sulfonyl)-phenyl]-1H-[1,2,3]triazol-4-yl}-1H-quinolin-2-one], with 13 nM; and `CO[C@@H]1CN[C@H](C(=O)N(C)c2ccc(-n3cc(-c4cc5cc(F)ccc5[nH]c4=O)nn3)cc2)C1` [A347, (2S,4S)-4-methoxy-pyrrolidine-2-carboxylic acid {4-[4-(6-fluoro-2-oxo-1,2-dihydro-quinolin-3-yl)-[1,2,3]triazol-1-yl]-phenyl}-methyl-amide], with 26 nM; and `CO[C@H]1CCN(S(=O)(=O)c2ccc(-n3cc(-c4cc5cc(F)ccc5[nH]c4=O)nn3)cc2)C1` [A360, 6-fluoro-3-{1-[4-((S)-3-methoxy-pyrrolidine-1-sulfonyl)-phenyl]-1H-[1,2,3]triazol-4-yl}-1H-quinolin-2-one], with 22 nM.
For the compound `CN1C[C@H]2CCN(C(=O)c3ccc(-n4cc(-c5cc6cc(F)ccc6[nH]c5=O)nn4)cc3)[C@H]2C1` [A291, 6-fluoro-3-{1-[4-((3aR,6aR)-5-methyl-hexahydro-pyrrolo[3,4-b]pyrrole-1-carbonyl)-phenyl]-1H-[1,2,3]triazol-4-yl}-1H-quinolin-2-one], the 50% inhibitory concentration (IC50) was 7.5 nM.
As for `O=c1[nH]c2ncccc2cc1-c1cn(-c2ccccc2)nn1` [A6, 3-(1-phenyl-1H-[1,2,3]triazol-4-yl)-1H-[1,8]naphthyridin-2-one], the IC50 was 430 nM.
As for `CN1CC[C@@H](Oc2ccc(-n3cc(-c4cc5cc(F)c(F)cc5[nH]c4=O)nn3)cc2)C1` [A373, 6,7-difluoro-3-{1-[4-((R)-1-methyl-pyrrolidin-3-yloxy)-phenyl]-1H-[1,2,3]triazol-4-yl}-1H-quinolin-2-one], the figure is 15 nM; as for `CO[C@@H](C)C(=O)N(C)c1ccc(-n2cc(-c3cc4cc(F)ccc4[nH]c3=O)nn2)cc1` [A348, (S)—N-{4-[4-(6-fluoro-2-oxo-1,2-dihydro-quinolin-3-yl)-[1,2,3]triazol-1-yl]-phenyl}-2-methoxy-N-methyl-propionamide], 16 nM; as for `CO[C@@H]1CCC[C@H]1Oc1ccc(-n2cc(-c3cc4cc(F)ccc4[nH]c3=O)nn2)cc1` [A362, 6-fluoro-3-{1-[4-((1S,25)-2-methoxy-cyclopentyloxy)-phenyl]-1H-[1,2,3]triazol-4-yl}-1H-quinolin-2-one], 16 nM.
With `CN1CC[C@H](Oc2ccc(-n3cc(-c4cc5cc(F)c(F)cc5[nH]c4=O)nn3)cc2)C1` [A372, 6,7-difluoro-3-{1-[4-((S)-1-methyl-pyrrolidin-3-yloxy)-phenyl]-1H-[1,2,3]triazol-4-yl}-1H-quinolin-2-one], the IC50 turned out to be 21 nM.
